From US20240180160A1, “ANTIVIRAL POLYMER MATERIAL” (VALE BROTHERS LIMITED, priority 2021, published 2024)
Where two headings read alike, the source gives them in different places.

Columns and labels:
[1] = tested on: Feline coronavirus ATCC VR-989; settings: 0.7% Formaldehyde
Method: (§1) In addition, the formaldehyde cytotoxicity of neutralised formaldehyde is determined to measure assay sensitivity.
(§2) TCID50 was determined by the method of Karber (1Kärber, G.: Beitrag zur Kollektiven Behandlung Pharmakologischer Reihenversuche. Arch. Exp. Path. Pharmak. 162 (1931): 480-487.). Test virus suspension has at least a concentration which allows the determination of a 4 log10 reduction of the virus titre. The number of infectious virus particles is quantified by using the Median Tissue Culture Infectious Dose (TCID50) assay. The assay works by adding a serial dilution of the virus sample to cells in a 96 well plate format. The type of cell is specifically selected to show a cytopathic effect (CPE), i.e. morphological changes upon infection with the virus or cell death. After an incubation period, the cells are inspected for CPE or cell death and each well is classified as infected or not infected. Colorimetric or fluorometric readouts are also possible, which can increase assay sensitivity. The dilution, at which 50% of the wells show a CPE, is used to calculate the TCID50 of the virus sample. This calculation can generally be done by a variety of mathematical approaches, e.g., the Spearman-Karber method or the Reed-Muench method. Virus quantity is expressed as TCID50/ml.

CRFK cells = experiment: Cytotoxicity control on the titration cells; settings: 0.7% Formaldehyde, neutralised
Method: as §1, §2

C=O [Formaldehyde, formaldehyde]
TCID50/ml (recovered virus) ([1]; exposure time 30 mins): 3.16E+02 TCID50/ml
log (TCID50/ml) ([1]; exposure time 30 mins): 2.50 log
log difference ([1]; exposure time 30 mins): 3.17 log
TCID50/ml (recovered virus) ([1]; exposure time 60 mins): 3.16E+02 TCID50/ml
log (TCID50/ml) ([1]; exposure time 60 mins): 2.50 log
log difference ([1]; exposure time 60 mins): 3.17 log
Cytotoxicity TCID50/ml (CRFK cells): 3.16E+02 TCID50/ml
Cytotoxicity log (TCID50/ml) (CRFK cells): 2.50 log
